Laboratory results published in ChEMBL document CHEMBL2176970, “Discovery and optimization of a series of 3-(3-phenyl-3H-imidazo[4,5-b]pyridin-2-yl)pyridin-2-amines: orally bioavailable, selective, and potent ATP-independent Akt inhibitors” (J Med Chem, 2012).
Activity calls are given as the source filed them. The rule behind the calls is not given here.

What was measured:
[1] = biological target: T1, RAC-alpha serine/threonine-protein kinase (Homo sapiens, UniProt P31749); assay: Inhibition of Akt1 in human A2780 cells assessed as phosphorylation of Akt at S473 after 2 hrs by Western Blot analysis; assay type: cell-based
T1 sequence (P31749 whole entry): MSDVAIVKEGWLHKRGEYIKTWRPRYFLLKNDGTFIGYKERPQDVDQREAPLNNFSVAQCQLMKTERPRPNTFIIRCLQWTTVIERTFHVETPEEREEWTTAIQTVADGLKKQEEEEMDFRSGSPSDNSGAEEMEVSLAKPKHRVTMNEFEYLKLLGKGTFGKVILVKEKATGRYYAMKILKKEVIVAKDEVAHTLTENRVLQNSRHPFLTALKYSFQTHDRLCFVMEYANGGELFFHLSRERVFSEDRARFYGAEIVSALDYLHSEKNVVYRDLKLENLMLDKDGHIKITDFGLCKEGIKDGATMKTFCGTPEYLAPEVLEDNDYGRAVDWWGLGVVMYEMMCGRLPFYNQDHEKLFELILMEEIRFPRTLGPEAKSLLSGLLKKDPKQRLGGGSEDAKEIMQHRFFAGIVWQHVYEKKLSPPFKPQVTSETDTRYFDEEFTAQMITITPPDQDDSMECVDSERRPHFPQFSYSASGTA

[2] = biological target: T1, RAC-alpha serine/threonine-protein kinase; assay: Inhibition of Akt1 in human AN3CA cells assessed as phosphorylation of Akt at S473 after 2 hrs by Western Blot analysis; assay type: cell-based, AN3-CA
[3] = biological target: T1, RAC-alpha serine/threonine-protein kinase; assay: Inhibition of Akt 1 in human A2780 cells assessed as phosphorylation of Akt at T308 after 2 hrs by Western Blot analysis; assay type: cell-based
[4] = biological target: T1, RAC-alpha serine/threonine-protein kinase; assay: Inhibition of Akt 1 in human AN3CA cells assessed as phosphorylation of Akt at T308 after 2 hrs by Western Blot analysis; assay type: cell-based, AN3-CA
[5] = biological target: T1, RAC-alpha serine/threonine-protein kinase; assay: Inhibition of Akt1 in human A2780 cells assessed as phosphorylation PRAS40 at T246 after 2 hrs by Western Blot analysis; assay type: cell-based
[6] = biological target: T1, RAC-alpha serine/threonine-protein kinase; assay: Inhibition of Akt1 in human AN3CA cells assessed as phosphorylation PRAS40 at T246 after 2 hrs by Western Blot analysis; assay type: cell-based, AN3-CA
A2780 = assay: Antiproliferative activity against human A2780 cells after 72 hrs by MTS assay; assay type: functional, cell-based; settings: A2780, 72 h
AN3-CA = assay: Antiproliferative activity against human AN3CA cells after 72 hrs by MTS assay; assay type: functional, cell-based
[7] = biological target: T2, RAC-beta serine/threonine-protein kinase (Homo sapiens, UniProt P31751); assay: Binding affinity to Akt2 (1 to 481) expressed in Sf9 cells assessed as change in melting temperature at 15 uM
T2 sequence (P31751 whole entry): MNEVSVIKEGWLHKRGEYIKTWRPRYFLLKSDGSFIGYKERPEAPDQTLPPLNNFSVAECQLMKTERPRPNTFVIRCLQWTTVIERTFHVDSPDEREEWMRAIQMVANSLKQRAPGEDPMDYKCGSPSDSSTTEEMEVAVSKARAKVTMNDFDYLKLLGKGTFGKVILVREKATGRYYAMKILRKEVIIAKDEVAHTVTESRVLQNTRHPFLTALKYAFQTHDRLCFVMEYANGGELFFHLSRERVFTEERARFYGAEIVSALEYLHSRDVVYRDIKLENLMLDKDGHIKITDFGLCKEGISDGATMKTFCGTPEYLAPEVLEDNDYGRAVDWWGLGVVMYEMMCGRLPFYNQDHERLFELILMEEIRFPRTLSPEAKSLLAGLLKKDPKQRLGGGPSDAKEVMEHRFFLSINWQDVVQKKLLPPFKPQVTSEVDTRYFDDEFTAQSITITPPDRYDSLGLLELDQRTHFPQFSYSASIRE

[8] = biological target: T3, RAC-gamma serine/threonine-protein kinase (Homo sapiens, UniProt Q9Y243); assay: Binding affinity to Akt3 (1 to 479) expressed in Sf9 cells assessed as change in melting temperature at 15 uM
T3 sequence (Q9Y243 whole entry): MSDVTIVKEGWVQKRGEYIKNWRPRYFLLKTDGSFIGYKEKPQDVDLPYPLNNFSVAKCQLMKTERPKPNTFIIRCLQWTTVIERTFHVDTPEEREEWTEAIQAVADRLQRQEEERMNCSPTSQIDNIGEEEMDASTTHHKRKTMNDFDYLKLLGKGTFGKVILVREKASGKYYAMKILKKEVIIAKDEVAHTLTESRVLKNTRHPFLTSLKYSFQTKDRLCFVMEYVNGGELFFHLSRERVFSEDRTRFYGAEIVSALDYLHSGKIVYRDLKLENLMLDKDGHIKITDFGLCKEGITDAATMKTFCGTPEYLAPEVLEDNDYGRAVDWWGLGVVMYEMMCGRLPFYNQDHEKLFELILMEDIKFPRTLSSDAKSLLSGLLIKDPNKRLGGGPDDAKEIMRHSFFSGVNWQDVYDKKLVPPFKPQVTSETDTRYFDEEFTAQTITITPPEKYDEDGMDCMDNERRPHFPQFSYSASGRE

[9] = biological target: T1, RAC-alpha serine/threonine-protein kinase; assay: Inhibition of Akt1 (1 to 480) expressed in Sf9 cells using biotin-GRPRTSSFAEG as substrate after 20 mins by Alpha-screen assay
[10] = biological target: T2, RAC-beta serine/threonine-protein kinase; assay: Inhibition of Akt2 (1 to 481) expressed in Sf9 cells using biotin-GRPRTSSFAEG as substrate after 20 mins by Alpha-screen assay
[11] = biological target: T3, RAC-gamma serine/threonine-protein kinase; assay: Inhibition of Akt3 (1 to 479) expressed in Sf9 cells using biotin-GRPRTSSFAEG as substrate after 20 mins by Alpha-screen assay
[12] = biological target: T1, RAC-alpha serine/threonine-protein kinase; settings: Sf9
[13] = biological target: T1, RAC-alpha serine/threonine-protein kinase; assay: Inhibition of Akt1 (1 to 480) expressed in Sf9 cells by indirect affinity mass spectrometry assay
[14] = biological target: T1, RAC-alpha serine/threonine-protein kinase; settings: Sf9; remark: listed apart in the source
Description: Binding affinity to Akt1 (144 to 480) expressed in Sf9 cells assessed as fluorescence quenching by Trp fluorescence assay

[15] = biological target: T1, RAC-alpha serine/threonine-protein kinase; settings: Sf9; remark: listed apart in the source
Description: Binding affinity to Akt1 (1 to 480) expressed in Sf9 cells assessed as fluorescence quenching by Trp fluorescence assay

[16] = biological target: T1, RAC-alpha serine/threonine-protein kinase; settings: Sf9; remark: listed apart in the source
Description: Binding affinity to Akt1 (1 to 480) expressed in Sf9 cells assessed as change in melting temperature at 15 uM

[17] = biological target: T1, RAC-alpha serine/threonine-protein kinase; settings: Sf9; remark: listed apart in the source
Description: Binding affinity to Akt1 (144 to 480) expressed in Sf9 cells assessed as change in melting temperature at 15 uM

Molecule `Nc1ncccc1-c1nc2ccc(-c3cccnc3)nc2n1-c1ccc(CC(=O)Nc2ccccc2)cc1` has an IC50 [1] of 65 nM, an IC50 [2] of 69 nM and an IC50 [3] of 55 nM. It also gave an IC50 [4] of 51 nM, an IC50 [5] of 480 nM and an IC50 [6] of 2500 nM. The IC50 (A2780) was 9400 nM, the IC50 (AN3-CA) was 8800 nM and the ΔTm [7] was 5.1 °C. For the same molecule, the ΔTm [8] was 1.8 °C, the IC50 [9] was 50 nM and the IC50 [10] was 25 nM. It also gave an IC50 [11] of 390 nM and a ΔTm [12] of 10.8 °C.

`Nc1ccc(-n2c(-c3cccnc3N)nc3cccnc32)cc1` was tested, and the IC50 [9] was 740 nM and the ΔTm [12] was 4.1 °C.

For `CC(C)(C)c1ccc(-n2c(-c3cccnc3)nc3cccnc32)cc1`, the IC50 [9] was 185000 nM and the deltaTm [12] was “inactive”.

Molecule `Nc1ncccc1-c1nc2cccnc2n1-c1ccc(CNCc2ccccc2)cc1` has an IC50 [9] of 260 nM and a ΔTm [12] of 4.9 °C.

In the case of `Nc1ncccc1-c1nc2cccnc2n1-c1cccc(CNC(=O)c2ccccc2)c1`, the IC50 [9] is reported as 13000 nM and the deltaTm [12] is reported as “inactive”.

For `Nc1ncccc1-c1nc2cccnc2n1-c1ccc(NC(=O)c2ccccc2)cc1`, the IC50 [9] was 14 nM and the ΔTm [12] was 7.3 °C.

`Nc1ncccc1-c1nc2cc(Br)cnc2n1-c1ccc(CNC(=O)c2ccccc2)cc1` was tested, and the IC50 [1] was under 12 nM, the IC50 [2] was 2500 nM and the IC50 [3] was 170 nM. It also gave an IC50 [4] of over 10000 nM, an IC50 [5] of 3100 nM and an IC50 [6] of over 10000 nM. The IC50 (A2780) was 65000 nM, the IC50 (AN3-CA) was 60000 nM and the ΔTm [7] was 3 °C. It also gave a ΔTm [8] of 1 °C, an IC50 [9] of 27 nM and an IC50 [10] of 130 nM. For the same molecule, the IC50 [11] was over 10000 nM and the ΔTm [12] was 8.1 °C.

In the case of `Nc1ncccc1-c1nc2ccc(-c3cccnc3)nc2n1-c1ccc(CNC(=O)c2cccc(F)c2)cc1`, the IC50 [1] is reported as 190 nM, the IC50 [2] is reported as 95 nM and the IC50 [3] is reported as 690 nM. The IC50 [4] was 340 nM, the IC50 [5] was 1300 nM and the IC50 [6] was 2100 nM. For the same molecule, the IC50 (A2780) was 10000 nM, the IC50 (AN3-CA) was 10000 nM and the ΔTm [7] was 5.7 °C. For the same molecule, the ΔTm [8] was 1.6 °C, the IC50 [9] was 47 nM and the IC50 [10] was 80 nM. The IC50 [11] was 660 nM and the ΔTm [12] was 11.1 °C.

For `COc1ccccc1Cn1c(-c2cccnc2N)nc2cccnc21`, the IC50 [9] was 58000 nM and the deltaTm [12] was “inactive”.

For `CC(C)(C)c1cccc(-n2c(-c3cccnc3N)nc3cccnc32)c1`, the IC50 [9] was over 300000 nM and the deltaTm [12] was “inactive”.

Work on `Nc1ncccc1-c1nc2cc(-c3ccccc3)cnc2n1-c1ccc(CNC(=O)c2ccccc2)cc1` yielded an IC50 [1] of 330 nM, an IC50 [2] of 160 nM and an IC50 [3] of 680 nM. It also gave an IC50 [4] of 1100 nM, an IC50 [5] of 1800 nM and an IC50 [6] of 980 nM. The IC50 (A2780) was over 100000 nM, the IC50 (AN3-CA) was over 100000 nM and the ΔTm [7] was 1.2 °C. For the same molecule, the deltaTm [8] was “inactive”, the IC50 [9] was 33 nM and the IC50 [10] was 51000 nM. For the same molecule, the IC50 [11] was over 100000 nM and the ΔTm [12] was 5.61 °C.

`CC(=O)Nc1cccc(-c2ccc3nc(-c4cccnc4N)n(-c4ccc(CC(=O)Nc5cccc(F)c5)cc4)c3n2)c1` gave an IC50 [1] of 120 nM, an IC50 [2] of 90 nM and an IC50 [3] of 15 nM. For the same molecule, the IC50 [4] was 260 nM, the IC50 [5] was 140 nM and the IC50 [6] was 1500 nM. For the same molecule, the IC50 (A2780) was 3300 nM, the IC50 (AN3-CA) was 1700 nM and the ΔTm [7] was 6.7 °C. The ΔTm [8] was 1.5 °C, the IC50 [9] was 17 nM and the IC50 [10] was 24 nM. It also gave an IC50 [11] of 2500 nM and a ΔTm [12] of 11.1 °C.

In the case of `COc1ccccc1Cn1c(-c2cccnc2N)nc2cc(Br)cnc21`, the IC50 [9] is reported as over 300000 nM and the deltaTm [12] is reported as “inactive”.

With `Nc1ncccc1-c1nc2cc(C3CCCC3)cnc2n1-c1ccc(CNC(=O)c2ccccc2)cc1` the IC50 [13] was 12000 nM, the IC50 [2] was 3700 nM and the IC50 [3] was 210 nM. For the same molecule, the IC50 [4] was 9400 nM, the IC50 [5] was 2100 nM and the IC50 [6] was over 10000 nM. The IC50 (A2780) was 65000 nM, the IC50 (AN3-CA) was 33000 nM and the ΔTm [7] was 3.3 °C. For the same molecule, the deltaTm [8] was “inactive”, the IC50 [9] was 110 nM and the IC50 [10] was 800 nM. It also gave an IC50 [11] of over 100000 nM and a ΔTm [12] of 6 °C.

`Cc1n[nH]c2ccc(-c3cncc(OC[C@@H](N)Cc4ccccc4)c3)cc12` was tested, and the ΔTm [14] was 2.12 °C, the deltaTm [15] was “inactive” and the deltaTm [16] was “inactive”. The ΔTm [17] was 1.3 °C.

Work on `Nc1ncccc1-c1nc2cccnc2n1-c1ccc(CNC(=O)Cc2ccccc2)cc1` yielded a ΔTm [12] of 4.7 °C.

In the case of `Nc1ncccc1-c1nc2cc(-c3cccnc3)cnc2n1-c1ccc(CNC(=O)c2cccc(F)c2)cc1`, the IC50 [1] is reported as 54 nM, the IC50 [2] is reported as 46 nM and the IC50 [3] is reported as 200 nM. For the same molecule, the IC50 [4] was 49 nM, the IC50 [5] was 580 nM and the IC50 [6] was 820 nM. For the same molecule, the IC50 (A2780) was 19000 nM, the IC50 (AN3-CA) was 13000 nM and the ΔTm [7] was 5.4 °C. It also gave a ΔTm [8] of 1.5 °C, an IC50 [9] of 5.2 nM and an IC50 [10] of 27 nM. For the same molecule, the ΔTm [12] was 9.4 °C.

`CC(=O)Nc1ccc(-n2c(-c3cccnc3N)nc3cccnc32)cc1` showed an IC50 [9] of 1300 nM and a ΔTm [12] of 3.7 °C.

Work on `CC(C)(C)c1ccc(-n2c(-c3cccnc3N)nc3cccnc32)cc1` yielded a ΔTm [12] of 1.9 °C.

With `COc1ccccc1Cn1c(-c2ccncc2)nc2cc(Br)cnc21` the IC50 [13] was 5900 nM, the IC50 [9] was over 300000 nM and the deltaTm [12] was “inactive”.

In the case of `CC(C)(C)c1ccc(-n2c(-c3cccnc3N)nc3cc(Br)cnc32)cc1`, the IC50 [9] is reported as over 300000 nM and the ΔTm [12] is reported as 0.9 °C.

For `Nc1ncccc1-c1nc2ccc(-c3ccccc3)nc2n1-c1ccc(CNC(=O)c2ccccc2)cc1`, the IC50 [1] was 68 nM, the IC50 [2] was over 10000 nM and the IC50 [3] was 180 nM. For the same molecule, the IC50 [4] was over 10000 nM, the IC50 [5] was 410 nM and the IC50 [6] was over 10000 nM. The IC50 (A2780) was 9500 nM, the IC50 (AN3-CA) was 5500 nM and the ΔTm [7] was 6.4 °C. The ΔTm [8] was 1.8 °C, the IC50 [9] was 24 nM and the IC50 [10] was 35 nM. For the same molecule, the IC50 [11] was 390 nM and the ΔTm [12] was 11 °C.

`CC(=O)NCc1ccc(-n2c(-c3cccnc3N)nc3cccnc32)cc1` gave an IC50 [9] of 810 nM and a ΔTm [12] of 2.3 °C.

`NCc1ccc(-n2c(-c3cccnc3)nc3cccnc32)cc1` was tested, and the IC50 [9] was 8800 nM and the deltaTm [12] was “inactive”.

For `CC(C)(C)c1ccc(-n2c(-c3ccncc3)nc3cccnc32)cc1`, the IC50 [9] was over 300000 nM and the deltaTm [12] was “inactive”.

In the case of `CC(=O)Nc1cccc(-c2ccc3nc(-c4cccnc4N)n(-c4ccc(CNC(=O)c5ccccc5)cc4)c3n2)c1`, the IC50 [1] is reported as 130 nM, the IC50 [2] is reported as 110 nM and the IC50 [3] is reported as 140 nM. It also gave an IC50 [4] of 170 nM, an IC50 [5] of 910 nM and an IC50 [6] of 840 nM. The IC50 (A2780) was 1600 nM, the IC50 (AN3-CA) was 1500 nM and the ΔTm [7] was 6.7 °C. The ΔTm [8] was 2.5 °C, the IC50 [9] was 15 nM and the IC50 [10] was 47 nM. For the same molecule, the IC50 [11] was 170 nM and the ΔTm [12] was 12.8 °C.

Work on `Nc1ncccc1-c1nc2ccc(-c3cccnc3)nc2n1-c1ccc(CNC(=O)c2ccccc2)cc1` yielded an IC50 [1] of 34 nM, an IC50 [2] of 1400 nM and an IC50 [3] of 67 nM. It also gave an IC50 [4] of 4200 nM, an IC50 [5] of 740 nM and an IC50 [6] of 3200 nM. For the same molecule, the IC50 (A2780) was 23000 nM, the IC50 (AN3-CA) was 13000 nM and the ΔTm [7] was 4 °C. For the same molecule, the ΔTm [8] was 1 °C, the IC50 [10] was 32 nM and the IC50 [11] was 370 nM. The ΔTm [12] was 9.7 °C.
